Consider two molecules from US20080286215A1, “Method of Preventing Oral Staining” (priority 2005, published 2008).

The nature of series [1]: seven-day twice-daily mouthwash swilling, staining of teeth and tongue. It is filed as in vivo. Conditions: 0.2% mouthwash swilled twice daily for seven days. As for the experimental part:
FIG. 1 panel B illustrates staining of the teeth caused when contacted over a seven-day period with Chlorhexidine 0.2% twice daily for one minute (panel A is a control showing seven days rinsing with Delmopinol 0.2% twice daily 10 ml for one minute);
FIG. 2 panel B illustrates staining of the tongue when contacted over a seven day period with Chlorhexidine 0.2% twice daily for one minute (panel A is a control showing seven days rinsing with Delmopinol 0.2% twice daily 10 ml for one minute); and
A subject swilled their mouth twice daily with a 0.2% chlorhexidine mouthwash for seven days.
As a separate control, the subject swilled their mouth twice daily with a 0.2% delmopinol mouthwash for seven days.

Series [2] can be described thus: removal of chlorhexidine staining by a single one-minute brushing of the teeth. The conditions noted are these: subject with staining after seven days of chlorhexidine, brushed once, toothbrush soaked in 0.2% mouthwash. It is filed as in vivo. From the text: FIG. 3 illustrates the removal of Chlorhexidine stains seen in FIG. 1(B) by brushing the teeth for one minute with a toothbrush that has been soaked in 0.2% delmopinol. The subject with chlorhexidine staining (after the seven day usage of chlorhexidine) brushed their teeth once, for one minute, using a toothbrush soaked in a 0.2% delmopinol mouthwash.

For series [3] the following is noted: prolonged use, some subjects, noticed by dentists in some studies; cited from earlier work.

Like-named read-outs stand apart in the source and are kept apart here.

As to `[H]/N=C(\N/C(=N/[H])NCCCCCCNC(=N)NC(=N)Nc1ccc(Cl)cc1)Nc1ccc(Cl)cc1` [chlorhexidine, reference compound], in series [1], the “staining of the teeth” value is “characteristic staining of the teeth” and the “staining of the tongue” value was “the tongue was also stained”.
On to `CCCC(CCC)CCCC1COCCN1CCO` (stereo not drawn) [delmopinol, 3-(4-propyl-heptyl)-4-(2-hydroxyethyl)morpholine], for which the “removal of chlorhexidine staining of the teeth” value in series [2] is listed as “removed the staining of the teeth”. For the same molecule, the “staining of the teeth” value in series [1] is recorded as “No staining was observed”; in series [3] it was “mild staining of the teeth”. The “staining of the tongue” value in series [1] was “No staining was observed”.
